The results in this text go back to patent publication US9656971B2, “COMT inhibitors” (Hoffmann-La Roche Inc., priority 2012, dated 2017).

In the test the target is T1, Rec. human COMT (Homo sapiens, UniProt P21964).
T1 sequence (P21964 1-271): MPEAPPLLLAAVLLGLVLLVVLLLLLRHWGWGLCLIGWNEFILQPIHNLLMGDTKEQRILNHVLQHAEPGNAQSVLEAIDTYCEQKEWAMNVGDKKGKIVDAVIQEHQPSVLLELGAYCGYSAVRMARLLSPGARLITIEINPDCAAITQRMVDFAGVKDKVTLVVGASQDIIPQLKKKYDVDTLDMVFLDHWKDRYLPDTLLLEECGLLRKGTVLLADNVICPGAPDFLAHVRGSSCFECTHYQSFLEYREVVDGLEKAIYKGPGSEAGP
Description: COMT-Fluorescence Assay. The test is classed as biochemical. As to conditions: rec. human COMT 25 nM, 4-Nitrocatechol-Alexa488 200 nM, SAM 500 nM. How it is done:
This intramolecular interaction is disturbed if the 4-Nitrocatechol is methylated. […] This increase of fluorescence intensity can be followed in a kinetic measurement. The slope in the linear range of the kinetic is calculated. An inhibitor compound decreases the slope.
Signal [rfu/min]=(rfu(end-point)−rfu(startpoint))/incubation_time_#2

The mark [1] stands for this setting: COMT-fluorescence assay, read-out: IC50.

Where a name gives a salt, the structure may show the parent alone. Read-outs that look alike come from different tables or passages of the source.

The term IC50 denotes the concentration needed to halve the response being measured. `Cc1ccc(F)cc1-c1cc(O)c2nc[nH]c(=O)c2c1` [Example 213, 6-(5-Fluoro-2-methylphenyl)-8-hydroxyquinazolin-4(3H)-one] yielded an IC50 (IC50, COMT-fluorescence assay) of 30 nM. With `O=C(c1ccc(-c2cc(O)c3nc[nH]c(=O)c3c2)cc1)N1CCC(F)(F)CC1` [Example 200, 6-[4-(4,4-Difluoro-piperidine-1-carbonyl)-phenyl]-8-hydroxy-3H-quinazolin-4-one], the IC50 under setting [1] was 10 nM. The same measure, in the same setting: next, `N#Cc1c(-c2ccc(F)cc2)cc(O)c2nc[nH]c(=O)c12` [Example 54, 6-(4-Fluorophenyl)-8-hydroxy-4-oxo-3,4-dihydroquinazoline-5-carbonitrile]: 60 nM. Where the note is “IC50, COMT-fluorescence assay”, `CS(=O)(=O)Cc1ccccc1-c1cc(O)c2nc[nH]c(=O)c2c1` [Example 115, 8-Hydroxy-6-(2-(methylsulfonylmethyl)phenyl)quinazolin-4(3H)-one 2,2,2-trifluoroacetate] yielded a 50% inhibitory concentration (IC50) of 50 nM.

Regarding `O=c1[nH]cnc2c(O)cc(-c3ccccc3OC(F)(F)F)cc12` [Example 145, 8-Hydroxy-6-(2-trifluoromethoxy-phenyl)-3H-quinazolin-4-one], under setting [1], the IC50 is 70 nM. On the same count and under the same terms, next, `O=c1[nH]cnc2c(O)cc(-c3ccccc3-c3ccccc3)cc12` [Example 214, 6-(Biphenyl-2-yl)-8-hydroxyquinazolin-4(3H)-one]: 640 nM; `O=c1[nH]cnc2c(O)cc(Oc3ccc(F)cc3)cc12` [Example 189, 6-(4-Fluorophenoxy)-8-hydroxyquinazolin-4(3H)-one]: 840 nM. Same read-out and setting: to `CS(=O)(=O)c1ccc(Cl)c(-c2cc(O)c3nc[nH]c(=O)c3c2)c1` [Example 48, 6-(2-Chloro-5-methanesulfonyl-phenyl)-8-hydroxy-3H-quinazolin-4-one] belongs 50 nM; to `O=c1[nH]cnc2c(O)cc(-c3ccccc3OCc3ccccc3)cc12` [Example 227, 6-(2-(Benzyloxy)phenyl)-8-hydroxyquinazolin-4(3H)-one], 50 nM.

Regarding `O=c1[nH]cnc2c(O)cc(-c3ccc(F)cc3)c(Cl)c12` [Example 101, 5-Chloro-6-(4-fluorophenyl)-8-hydroxyquinazolin-4(3H)-one], the IC50 under setting [1] was 10 nM.

Regarding `O=c1[nH]cnc2c(O)cc(Cl)cc12` [Example 139, 6-Chloro-8-hydroxyquinazolin-4(3H)-one], under setting [1], the IC50 stood at 290 nM. For `CS(=O)(=O)c1cccc(-c2cc(O)c3nc[nH]c(=O)c3c2)c1` [Example 157, 8-Hydroxy-6-(3-(methylsulfonyl)phenyl)quinazolin-4(3H)-one], the IC50 (IC50, COMT-fluorescence assay) came out at 20 nM.

Turning to `O=C(c1cccc(-c2cc(O)c3nc[nH]c(=O)c3c2)c1)N1CCC(F)(F)CC1` [Example 199, 6-[3-(4,4-Difluoro-piperidine-1-carbonyl)-phenyl]-8-hydroxy-3H-quinazolin-4-one], under setting [1], the IC50 stood at 20 nM. For the molecule `O=c1[nH]cnc2c(O)c(F)c(Br)c(-c3ccc(F)cc3)c12` [Example 244, 6-Bromo-7-fluoro-5-(4-fluoro-phenyl)-8-hydroxy-3H-quinazolin-4-one], under setting [1], the IC50 amounted to 150 nM. With `COCc1nc(NC(=O)C(C)(C)C)ccc1-c1cc(O)c2nc[nH]c(=O)c2c1` [Example 104, N-(5-(8-Hydroxy-4-oxo-3,4-dihydroquinazolin-6-yl)-6-(methoxymethyl)pyridin-2-yl)pivalamide], the IC50 under setting [1] was 10 nM. Still for that read-out and setting: next, `O=C(c1cccc(-c2cc(O)c3nc[nH]c(=O)c3c2)c1)N1CCOCC1` [Example 175, 8-Hydroxy-6-(3-(morpholine-4-carbonyl)phenyl)quinazolin-4(3H)-one]: 20 nM.

On to `Cc1noc(C)c1-c1cc(O)c2nc[nH]c(=O)c2c1` [Example 78, 6-(3,5-Dimethylisoxazol-4-yl)-8-hydroxyquinazolin-4(3H)-one], for which the IC50 under setting [1] came to 320 nM. Same read-out and setting: to `O=c1[nH]cnc2c(O)cc(-c3ccc4ccccc4c3)cc12` [Example 169, 8-Hydroxy-6-(naphthalen-2-yl)quinazolin-4(3H)-one] belongs 40 nM; to `Cc1ccc(-c2cc(O)c3nc[nH]c(=O)c3c2)cn1` [Example 166, 8-Hydroxy-6-(6-methylpyridin-3-yl)quinazolin-4(3H)-one], 60 nM; to `Cn1cnc(-c2cc(O)c3nc[nH]c(=O)c3c2)c1` [Example 75, 8-Hydroxy-6-(1-methyl-1H-imidazol-4-yl)quinazolin-4(3H)-one], 510 nM.

In the case of `Cn1ccnc1-c1cc(O)c2nc[nH]c(=O)c2c1` [Example 73, 8-Hydroxy-6-(1-methyl-1H-imidazol-2-yl)quinazolin-4(3H)-one], the IC50 under setting [1] was 40 nM. On the same count and under the same terms, to `COCc1ncccc1-c1cc(O)c2nc[nH]c(=O)c2c1` [Example 110, 8-Hydroxy-6-(2-(methoxymethyl)pyridin-3-yl)quinazolin-4(3H)-one bis(2,2,2-trifluoroacetate)] belongs 20 nM; to `CS(=O)(=O)Cc1ccccc1-c1cc(O)c2nc[nH]c(=O)c2c1Cl` [Example 119, 5-Chloro-8-hydroxy-6-(2-(methylsulfonylmethyl)phenyl)quinazolin-4(3H)-one], 610 nM.

Consider `CS(=O)(=O)c1ccc(-c2c(-c3ccc(F)cc3)cc(O)c3nc[nH]c(=O)c23)cc1` [Example 57, 6-(4-Fluorophenyl)-8-hydroxy-5-(4-(methylsulfonyl)phenyl)quinazolin-4(3H)-one], for which, under setting [1], the IC50 was found to be 10 nM. Same read-out and setting: next, `CN1CCN(C(=O)c2cccc(-c3cc(O)c4nc[nH]c(=O)c4c3)c2)CC1` [Example 191, 8-Hydroxy-6-[3-(4-methyl-piperazine-1-carbonyl)-phenyl]-3H-quinazolin-4-one]: 30 nM; `O=C(c1cccc(-c2cc(O)c3nc[nH]c(=O)c3c2)c1)N1CCS(=O)(=O)CC1` [Example 192, 6-[3-(1,1-Dioxo-1λ^6-thiomorpholine-4-carbonyl)-phenyl]-8-hydroxy-3H-quinazolin-4-one]: 20 nM. The same measure, in the same setting: next, `Cc1cc(F)ccc1-c1cc(O)c2nc[nH]c(=O)c2c1` [Example 127, 6-(4-Fluoro-2-methylphenyl)-8-hydroxyquinazolin-4(3H)-one]: 20 nM.

With `O=c1[nH]cnc2c(O)cc(-c3ccccc3CO)c(Cl)c12` [Example 255, 5-Chloro-8-hydroxy-6-(2-hydroxymethyl-phenyl)-3H-quinazolin-4-one], the IC50 under setting [1] came to 120 nM. `CC(=O)c1ccccc1-c1cc(O)c2nc[nH]c(=O)c2c1` [Example 112, 6-(2-Acetylphenyl)-8-hydroxyquinazolin-4(3H)-one]: the IC50 (IC50, COMT-fluorescence assay) worked out at 170 nM.

Under “IC50, COMT-fluorescence assay”, `COc1ccc(-c2cc(O)c3nc[nH]c(=O)c3c2)cc1` [Example 135, 8-Hydroxy-6-(4-methoxy-phenyl)-3H-quinazolin-4-one] registered an IC50 of 10 nM. Turning to `COCc1ccccc1-c1cc(O)c2nc[nH]c(=O)c2c1` [Example 220, 8-Hydroxy-6-(2-(methoxymethyl)phenyl)quinazolin-4(3H)-one], under setting [1], the half-maximal inhibitory concentration (IC50) turned out to be 20 nM. Regarding `Cn1nccc1-c1cc(O)c2nc[nH]c(=O)c2c1` [Example 181, 8-Hydroxy-6-(1-methyl-1H-pyrazol-5-yl)quinazolin-4(3H)-one], the IC50 under setting [1] worked out at 20 nM. In the case of `Nc1c(-c2ccc(F)cc2)cc(O)c2nc[nH]c(=O)c12` [Example 253, 5-Amino-6-(4-fluorophenyl)-8-hydroxyquinazolin-4(3H)-one hydrobromide], the IC50 under setting [1] was 100 nM.
